Results published in ChEMBL document CHEMBL1201862, “PubChem BioAssay data set” (2004).
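Briefly, cells in 96-well plates were exposed to five compound concentrations for 48 h, and endpoints were estimated by linear interpolation. GI50 = concentration required for 50% inhibition of growth.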 Calls of active or inactive are those of the source. Rule as the data show it: active = GI50 up to about 1.1 µM and inactive = higher.

Assays:
Test in all cases: NCI-60 cell line screen, 48 h
[1] = test system: SF-295
[2] = test system: RXF 393
[3] = test system: SNB-75
[4] = test system: UACC-257
[5] = test system: MOLT-4
[6] = test system: OVCAR-3
[7] = test system: HOP-92
[8] = test system: OVCAR-4
[9] = test system: CCRF-CEM
[10] = test system: NCI-H23
[11] = test system: K562
[12] = test system: SN12C
[13] = test system: A498
[14] = test system: SNB-19
[15] = test system: LOX IMVI
[16] = test system: M14
[17] = test system: EKVX
[18] = test system: NCI-H226
[19] = test system: SF-268

Measured: GI50

COc1cc2c(oc(=O)c3cc4ccoc4c(OC)c32)c2cccc(O)c12
inactive: [1] > 100 µM | [2] > 100 µM | [3] 60.3 µM | [4] > 100 µM | [5] > 100 µM | [6] > 100 µM | [7] > 100 µM | [8] > 100 µM | [9] > 100 µM | [10] > 100 µM | [11] > 100 µM | [12] > 100 µM | [13] > 100 µM | [14] > 100 µM | [15] > 100 µM | [16] > 100 µM | [17] > 100 µM | [18] > 100 µM | [19] > 100 µM

Cc1oc(N)c(S(=O)(=O)c2ccc(Cl)cc2)c1C
inactive: [1] 39.5 µM | [2] 30.8 µM | [3] 29.9 µM | [4] 40.2 µM | [5] 47.3 µM | [6] 29.1 µM | [7] > 100 µM | [8] 21.7 µM | [9] 78.9 µM | [10] 32.8 µM | [11] 53.6 µM | [13] > 100 µM | [14] > 100 µM | [16] 29.6 µM | [17] 45 µM | [18] 53.1 µM | [19] 43.1 µM

CC(=O)OC1COC(N2C(=O)C(=O)c3cc(Br)ccc32)C(OC(C)=O)C1OC(C)=O (stereo not drawn)
inactive: [1] > 100 µM | [2] > 100 µM | [3] > 100 µM | [4] > 100 µM | [5] 96.8 µM | [6] > 100 µM | [7] > 100 µM | [8] > 100 µM | [9] 71.3 µM | [10] > 100 µM | [11] > 100 µM | [12] > 100 µM | [13] > 100 µM | [14] > 100 µM | [15] > 100 µM | [16] > 100 µM | [17] > 100 µM | [18] > 100 µM | [19] > 100 µM

O=C(c1ccco1)N(Cc1cccnc1)C(=S)N(Cc1cccnc1)C(=O)c1ccco1
inactive: [1] 30.6 µM | [2] 28.7 µM | [3] 38.8 µM | [4] 14 µM | [5] 11 µM | [6] 6.35 µM | [7] 17.7 µM | [8] 20.4 µM | [9] 2.74 µM | [10] 23.8 µM | [11] 4.84 µM | [12] 10.6 µM | [13] 25.7 µM | [14] 30.8 µM | [15] 5.05 µM | [16] 12.9 µM | [17] 19.8 µM | [18] 19.5 µM | [19] 18.7 µM

COc1cc2c3c(c1OC)C1(C=CC(=O)C=C1)CC3N(C(=O)OC(C)(C)C(Cl)(Cl)Cl)CC2 (stereo not drawn)
inactive: [1] 13.4 µM | [2] 4.16 µM | [3] 15.1 µM | [4] 10.4 µM | [5] 2.97 µM | [6] 7.66 µM | [7] 14.4 µM | [8] 12.5 µM | [9] 7.73 µM | [10] 16.4 µM | [11] 4.68 µM | [12] 11.6 µM | [13] 16.7 µM | [14] 14.9 µM | [15] 10.1 µM | [16] 14.5 µM | [17] 16.8 µM | [18] 15.9 µM | [19] 13.1 µM

CN1C(=O)CNS1(=O)=O
inactive: [1] > 100 µM | [2] > 100 µM | [3] 38.1 µM | [4] > 100 µM | [5] > 100 µM | [6] > 100 µM | [7] > 100 µM | [9] > 100 µM | [10] > 100 µM | [11] > 100 µM | [12] > 100 µM | [13] > 100 µM | [14] > 100 µM | [15] > 100 µM | [16] > 100 µM | [18] > 100 µM | [19] > 100 µM

COc1ccccc1NC(=O)C1=C(C)NC(C)=C(C(=O)Nc2ccccc2OC)C1c1ccccc1OC
inactive: [1] > 100 µM | [3] 19.3 µM | [4] > 100 µM | [5] 54.5 µM | [6] 80.4 µM | [7] > 100 µM | [8] 69 µM | [9] > 100 µM | [10] > 100 µM | [11] 60.5 µM | [12] > 100 µM | [13] > 100 µM | [14] > 100 µM | [15] > 100 µM | [16] > 100 µM | [17] > 100 µM | [18] > 100 µM | [19] > 100 µM
